Data from patent US5516796A, “Thioprostaglandins and -prostaglandin-like compounds and therapeutic uses thereof” (Kabi Pharmacia AB, priority 1994, dated 1996).

Key:
platelet aggregation = experiment: In vitro bioassay, platelet aggregation; assay type: cell-based
Description: (§1) In vitro bioassay studies of thioprostaglandins according to this invention have shown that such thioprostaglandins exert biological effects on several mammalian tissues and organ systems. […] These biological effects have no known relationship to the IOP lowering effects of these prostaglandins.

[1] = tested on: circular preparation of the guinea pig ileum; experiment: In vitro bioassay, guinea pig ileum circular preparation
Description: as §1

eye [2] = experiment: Maximum reduction of intraocular pressure in cats after topical application; assay type: in vivo; details: for Intraocular pressure, Exp Eye / Maximum reduction of intraocular pressure, Difference (Exp Eye vs Cont Eye): 1-3 hours after application, mean ± SEM, n = 6
Description: (§2) Experiments were performed in cats and rabbits. The test compounds were administered topically to the eye. The compounds were tested by using a single dose of each concentration. The intraocular pressure in cats was measured with a pneumotonometer (Digilab Modular One, BioRad). Before the measurement the cornea was anaesthetized with 1-2 drops of oxibuprocain. The ocular irritation (discomfort) caused by the test compounds was assessed without anaesthesia in the same animals. The irritation was graded on an arbitrary scale 0-3, 0 indicating absence of irritation, and 3 indicating maximum irritation as obvious from complete lid closure. Surface hyperemia of the eye (redness of the eye) was evaluated in rabbits. The eye was photographed at regular intervals and the degree of hyperemia was evaluated from the color photographs in a masked way. The hyperemia was evaluated on an arbitrary scale 0-5, 0 indicating absence of hyperemia and 5 marked hyperemia and conjunctival chemosis. All compounds were formulated in physiologic saline using polysorbate 80 as solubilizer. The same volume of the vehicle only was applied topically on the contralateral control eye.
Maximum reduction of intraocular pressure in cats 1-3 hours after
application of different thioprostaglandin compounds (Mean ± SEM; n =

cat iris sphincter = experiment: In vitro bioassay, cat iris sphincter
Description: as §1

bovine iris sphincter = experiment: In vitro bioassay, bovine iris sphincter
Description: as §1

rat gastric fundus = experiment: In vitro bioassay, rat gastric fundus
Description: as §1

eye [3] = experiment: Ocular irritation (discomfort) after topical application, scale 0-3; assay type: in vivo, cats; details: for Maximum ocular irritation, Difference (experimental vs contralateral control eye): cats, topical, mean ± SEM, n = 6; for Ocular irritation grade (maximum irritation): same test system
Description: as §2
Maximum ocular irritation after topical
application of different thioprostaglandin compounds in
cats. The values represent the difference between the
experimental and contralateral control eyes (Mean ± SEM,

eye [4] = experiment: Surface hyperemia of the eye after topical application, scale 0-5; assay type: in vivo, rabbits; details: 0.5 μg; for Maximum surface hyperemia of the eye, Difference (Exp Eye vs Cont Eye) / Maximum surface hyperemia of the eye, Exp Eye: rabbits, topical, mean ± SEM, n = 6; for Ocular surface hyperemia grade: same test system
Description: as §2
Maximum surface hyperemia of the eye after
topical application of different thioprostaglandins in
rabbits. (Mean ± SEM, n = 6).

Row | Maximum surface hyperemia of the eye, Difference (Exp Eye vs Cont Eye) (eye [4]) | Maximum surface hyperemia of the eye, Exp Eye (eye [4]) | Compound | Intraocular pressure, Exp Eye (eye [2]; 3 ug) | Maximum reduction of intraocular pressure, Difference (Exp Eye vs Cont Eye) (eye [2]; 3 ug) | Maximum ocular irritation, Difference (experimental vs contralateral control eye) (eye [3]; 3 μg) | Intraocular pressure, Exp Eye (eye [2]; 1 ug) | Maximum reduction of intraocular pressure, Difference (Exp Eye vs Cont Eye) (eye [2]; 1 ug) | Maximum ocular irritation, Difference (experimental vs contralateral control eye) (eye [3]; 1 μg) | other results
1 | – | – | CCCCC[C@H](O)/C=C/[C@H]1C(SCc2ccccc2)CC(=O)[C@@H]1C/C=C\CCCC(=O)OCc1ccccc1 (some centres unmarked) [Compound 3, 11-deoxy-11-thiobenzyl-PGE2 benzyl ester] | 14.7 ± -0.7 mmHg | -3.7 ± -1.3 mmHg | 0.08 ± -0.08 | – | – | – | Effect on platelet aggregation (platelet aggregation): affect platelet aggregation; Stimulation of the circular preparation of the guinea pig ileum [1]: stimulate; Intraocular pressure, Exp Eye (eye [2]; 5 ug): 13.0 ± -0.4 mmHg; Maximum reduction of intraocular pressure, Difference (Exp Eye vs Cont Eye) (eye [2]; 5 ug): -3.8 ± -0.5 mmHg; 24 hour reduction of the intraocular pressure (in words) (eye [2]; 24 hour): Except for compound 3, all compounds caused 24 hour reduction of the intraocular pressure; Stimulation of the cat iris sphincter (cat iris sphincter): stimulate; Stimulation of the bovine iris sphincter (bovine iris sphincter): stimulate; Stimulation of the rat gastric fundus (rat gastric fundus): stimulate; Maximum ocular irritation, Difference (experimental vs contralateral control eye) (eye [3]; 5 μg): 1.33 ± -0.1
2 | – | – | CCCCC[C@H](O)/C=C/[C@H]1C(SCC(N)C(=O)OCC)CC(=O)[C@@H]1C/C=C\CCCC(=O)OCc1ccccc1 (some centres unmarked) [Compound 4] | 16.3 ± -0.7 mmHg | -4.3 ± -1.6 mmHg | 0.75 ± -0.1 | – | – | – | Effect on platelet aggregation (platelet aggregation): affect platelet aggregation; Stimulation of the circular preparation of the guinea pig ileum [1]: stimulate; Intraocular pressure, Exp Eye (eye [2]; 10 ug): 14.0 ± -0.7 mmHg; Maximum reduction of intraocular pressure, Difference (Exp Eye vs Cont Eye) (eye [2]; 10 ug): -5.8 ± -1.1 mmHg; Stimulation of the cat iris sphincter (cat iris sphincter): stimulate; Stimulation of the bovine iris sphincter (bovine iris sphincter): stimulate; Stimulation of the rat gastric fundus (rat gastric fundus): stimulate; Maximum ocular irritation, Difference (experimental vs contralateral control eye) (eye [3]; 10 μg): 0.58 ± -0.08
3 | 0.3 ± -0.2 | 1.1 ± -0.2 | CCCCC[C@H](O)/C=C/[C@H]1C(SCCC(=O)OCC)CC(=O)[C@@H]1C/C=C\CCCC(=O)OC (some centres unmarked) [Compound 5, 11-Deoxy-11-[3-thio-(1-ethylpropionate)] PGE2 methyl ester] | 11.5 ± -1.6 mmHg | -9.2 ± -1.2 mmHg | 0.58 ± -0.08 | 12.7 ± -1.0 mmHg | -9.5 ± -0.8 mmHg | 1.08 ± -0.2 | Reduction of intraocular pressure (in words) (eye [2]): The strongest effect; Reduction of intraocular pressure at low dose (in words) (eye [2]; 1 μg): markedly reduced the pressure; Intraocular pressure, Exp Eye (eye [2]; 10 ug): 12.3 ± -1.3 mmHg; Maximum reduction of intraocular pressure, Difference (Exp Eye vs Cont Eye) (eye [2]; 10 ug): -10.0 ± -0.9 mmHg; Maximum ocular irritation, Difference (experimental vs contralateral control eye) (eye [3]; 10 μg): 2.00 ± -0.1
4 | 0.8 ± -0.1 | 1.7 ± -0.1 | CCCCC[C@H](O)/C=C/[C@H]1C(SCCO)CC(=O)[C@@H]1C/C=C\CCCC(=O)OC (some centres unmarked) [Compound 6, 11-Deoxy-11-(thio-1-ethanol)-PGE2 methyl ester] | 13.8 ± -0.9 mmHg | -6.0 ± -1.3 mmHg | 0.67 ± -0.1 | 14.7 ± -1.0 mmHg | -5.8 ± -1.0 mmHg | 0.92 ± -0.08 | –
5 | 0.6 ± -0.2 | 1.2 ± -0.2 | CCCCC[C@H](O)/C=C/[C@H]1C(Sc2ccccc2C(=O)OC)CC(=O)[C@@H]1C/C=C\CCCC(=O)OC (some centres unmarked) [Compound 7, 11-Deoxy-11-[thio-2-(methylbenzoate)-]PGE2 methyl ester] | – | – | – | 16.2 ± -1.3 mmHg | -4.3 ± -0.7 mmHg | 1.08 ± -0.2 | –
6 | – | – | CCCCC[C@H](O)/C=C/[C@H]1[C@H](O)CC(=O)[C@@H]1C/C=C\CCCC(=O)OC(C)C [PGE2 -isopropyl ester, reference compound] | – | – | – | – | – | – | Ocular surface hyperemia grade (eye [4]): ≥ 2.9 grade; Ocular irritation grade (maximum irritation) (eye [3]; 1 μg): 3 grade
7 | – | – | CCCCC[C@H](O)/C=C/[C@@H]1[C@@H](C/C=C\CCCC(=O)OC(C)C)[C@@H](O)C[C@H]1O [PGF2α -isopropyl ester, reference compound] | – | – | – | – | – | – | Ocular surface hyperemia grade (eye [4]): ≥ 2.9 grade; Ocular irritation grade (maximum irritation) (eye [3]; 1 μg): 3 grade
